Results as given in patent US9029574B2, “Bicyclic compound and use thereof for medical purposes” (Ono Pharmaceutical Co., Ltd., priority 2011, dated 2015).

Assays:
Type in all cases: cell-based
mouse EP1 receptor = biological target: T1, mouse EP1 receptor (Mus musculus, UniProt P35375); assay: Measurement of EP1 agonist activity (intracellular calcium concentration) in EP1-CHO cells; settings: for EC50: EP1-CHO cells, intracellular calcium concentration, read-out: Agonist activity on various prostanoid receptors: EC50 value (nmol/L) EP1
T1 construct: expressed in transfected cells; host or cells: CHO cells (EP1-CHO)
T1 sequence (P35375 1-405): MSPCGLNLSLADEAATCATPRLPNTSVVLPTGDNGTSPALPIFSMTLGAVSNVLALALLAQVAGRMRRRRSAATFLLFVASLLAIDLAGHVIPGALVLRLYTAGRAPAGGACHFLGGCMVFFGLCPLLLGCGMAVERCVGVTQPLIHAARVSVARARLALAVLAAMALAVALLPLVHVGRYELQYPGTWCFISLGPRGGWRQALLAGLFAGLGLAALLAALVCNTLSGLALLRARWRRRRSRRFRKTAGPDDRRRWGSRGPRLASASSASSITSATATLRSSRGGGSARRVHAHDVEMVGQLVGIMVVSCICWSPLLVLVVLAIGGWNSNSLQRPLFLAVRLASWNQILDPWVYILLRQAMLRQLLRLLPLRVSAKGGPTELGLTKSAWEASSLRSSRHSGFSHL
Description: (§1) (1-1) Measurement of Agonist Activity on Various Mouse Prostanoid Receptors
(§2) With using CHO cells (FP-CHO, EP1-CHO and IP-CHO, respectively) in which various mouse prostanoid receptors were forcibly expressed, respectively, agonist activity of test compounds on various prostanoid receptors was studied employing an intracellular calcium concentration regarding FP and EP1, and an intracellular cyclic AMP (hereinafter, abbreviated as cAMP) production amount regarding IP, as an index.
(§3) The test compound was dissolved with dimethyl sulfoxide (DMSO) to prepare a 10 mmol/L solution. Regarding the prepared 10 mmol/L solution, upon use, the 10 mmol/L solution was thawed; step wisely-diluted using DMSO; and diluted with a buffer solution for measurement or a buffer solution for measurement 2, which was subjected to an experiment.
(§4) Cells forcibly expressing various mouse prostanoid receptors were standing-cultured at 37° C. in the presence of 5% CO2 with using an α-MEM medium (Sigma) (for culturing FP-CHO and EP1-CHO) containing inactivated (56° C., 30 minutes) 9.8 vol % dialysed-FBS (Invitrogen) and penicillin-streptomycin-glutamine (GIBCO-BRL), or nucleic acid-containing α-MEM (Sigma) (for culturing IP-CHO) containing inactivated (56° C., 30 minutes) 9.8 vol % dialysed-FBS (Invitrogen) and penicillin-streptomycin glutamine (Invitrogen). Subculturing was performed by the following method.
(§5) After collecting cells into a centrifuging tube, cells were centrifuged at 120 g for 3 minutes at room temperature and the supernatant was removed. Cells were suspended in a suitable amount of a medium, and seeded in a culturing flask.
(§6) (1-2) Measurement of FP and EP1 Agonist Activity (Measurement of Intracellular Calcium Concentration)
(§7) Regarding FP-CHO and EP1-CHO, by the same method as that of subculturing, cells were peeled and suspended. Before two days from measurement, cells were seeded at a density of 1.0×10^4 cells/well into a 96-well UV plate, and standing-cultured at 37° C. in the presence of 5% CO2. […] To each well, 100 μL of a medium containing 5 μmol/L fura 2-AM (DOJINDO), 2.5 mmol/L Probenecid (Sigma), 20 μmol/L indometacin (Sigma) and 10 mmol/L HEPES (Invitrogen) was added, and cells were incubated for about 60 minutes in a CO2 incubator. After completion of the incubation, the medium was removed, and cells were washed with a buffer solution for measurement (Hank's balanced salt solution (Nissui Pharmaceutical Co., Ltd., 9.8 g of the present product was dissolved in 1 L distilled water) containing 0.1 or 1 w/v % bovine serum albumin, 2 μmol/L indometacin, 2.5 mmol/L Probenecid and 10 mmol/L HEPES-NaOH (pH 7.4)) twice. To each well, 120 μL of a buffer solution for measurement was added; and cells were incubated in a CO2 incubator for 30 minutes; and then cells were subjected to an experiment.
(§8) The 96-well UV plate was set in a fluorescent spectral photometer (FDSS-3000, Hamamatsu Photonics K.K.), and an intracellular calcium concentration was measured. To perform a reaction, 30 μL of a buffered solution for measurement containing an agonist at a variety of concentrations was added. Measurement of an intracellular calcium concentration was performed by irradiating cells with excited light of 340 nm and 380 nm alternately, with measuring a fluorescent intensity at 500 nm, and obtaining a fluorescent intensity ratio of 2-wavelength excitation.
(§9) With using measured values obtained from the above method, an EC50 value as an index of agonist activity of the compound of the present invention on mouse FP, mouse EP1 and mouse IP receptors was calculated.

mouse IP receptor = biological target: T2, mouse IP receptor (Mus musculus, UniProt P43252); assay: Measurement of IP agonist activity (cAMP concentration) in IP-CHO cells; settings: for EC50: IP-CHO cells, intracellular cAMP production amount, read-out: Agonist activity on various prostanoid receptors: EC50 value (nmol/L) IP
T2 construct: expressed in transfected cells; host or cells: CHO cells (IP-CHO)
Description: as §1, §2, §3, §4, §5
(1-3) Measurement of IP Agonist Activity (Measurement of cAMP Concentration)
Cells were suspended in a suitable amount of a buffer solution for measurement 1 (MEM medium (Invitrogen) containing 0.1 w/v % bovine serum albumin (Sigma) and 2 μmol/L diclofenac (Sigma)), and centrifuged at room temperature for 3 minutes at 500 g, and the supernatant was removed. Cells were suspended in a buffer solution for measurement 2 (MEM medium (Invitrogen) containing 0.1 w/v % bovine serum albumin (Sigma), 2 μmol/L diclofenac (Sigma) and 1 mmol/L 3-isobutyl-1-methylxanthine), and each 25 μL of the suspension was dispensed at a density of 5.0×10^4 cells/well into a 96-well ½ area plate. A buffer solution for measurement 2 (25 μL) containing an agonist at a variety of concentrations was added to perform a reaction at room temperature for 30 minutes. Measurement of a cAMP concentration was performed with using the cAMP HTRF HiRange kit (CIS bio International). According to the two step protocol of the kit manual, each 25 μL of cAMP-D2 and cryptase diluted with a lysis buffer were added, followed by incubation at room temperature for 1 hour. After incubation for 1 hour, time resolved fluorescence at 620 nm and 660 nm in case of beging excited at 340 nm was measured using Analyst GT (Molecular Device), and a ratio (TRF ratio) was obtained, by which a cAMP concentration was calculated from a calibration line.
as §9

mouse FP receptor = biological target: T3, mouse FP receptor (Mus musculus, UniProt P43117); assay: Measurement of FP agonist activity (intracellular calcium concentration) in FP-CHO cells; settings: for EC50: FP-CHO cells, intracellular calcium concentration, read-out: Agonist activity on various prostanoid receptors: EC50 value (nmol/L) FP
T3 construct: expressed in transfected cells; host or cells: CHO cells (FP-CHO)
Description: as §1, §2, §3, §4, §5, §6, §7, §8, §9

T2 sequence (P43252 whole entry): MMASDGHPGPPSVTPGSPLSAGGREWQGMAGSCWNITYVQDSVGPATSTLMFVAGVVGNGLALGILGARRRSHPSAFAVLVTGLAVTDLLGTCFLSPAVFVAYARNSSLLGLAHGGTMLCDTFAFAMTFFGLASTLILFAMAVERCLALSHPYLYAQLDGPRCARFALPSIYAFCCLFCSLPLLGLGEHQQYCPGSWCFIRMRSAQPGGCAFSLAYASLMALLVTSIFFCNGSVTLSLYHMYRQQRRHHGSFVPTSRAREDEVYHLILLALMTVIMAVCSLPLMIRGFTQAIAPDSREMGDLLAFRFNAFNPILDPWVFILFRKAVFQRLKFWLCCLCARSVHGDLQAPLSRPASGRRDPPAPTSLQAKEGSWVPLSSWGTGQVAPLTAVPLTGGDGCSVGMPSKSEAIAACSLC
T3 sequence (P43117 whole entry): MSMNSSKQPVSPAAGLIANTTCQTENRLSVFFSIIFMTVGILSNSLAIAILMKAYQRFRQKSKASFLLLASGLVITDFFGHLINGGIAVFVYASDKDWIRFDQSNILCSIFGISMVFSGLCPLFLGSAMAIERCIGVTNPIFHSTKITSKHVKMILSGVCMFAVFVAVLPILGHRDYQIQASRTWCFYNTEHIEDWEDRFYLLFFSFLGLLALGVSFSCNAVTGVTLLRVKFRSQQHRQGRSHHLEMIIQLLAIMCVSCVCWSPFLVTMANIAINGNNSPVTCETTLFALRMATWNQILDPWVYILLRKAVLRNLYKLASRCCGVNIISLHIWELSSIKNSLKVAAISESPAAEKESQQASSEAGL

Row | Compound | EC50 (mouse EP1 receptor) [nmol/L] | agonist activity on an EP1 receptor (mouse EP1 receptor; in words, summary of Table 1) | EC50 (mouse IP receptor) [nmol/L] | agonist activity on an IP receptor (mouse IP receptor; in words, summary of Table 1) | EC50 (mouse FP receptor) [nmol/L] | agonist activity on an FP receptor (mouse FP receptor; in words, summary of Table 1)
1 | O=C(O)CCC[C@H]1CC[C@@H]2[C@@H](/C=C/[C@@H](O)COc3ccccc3)[C@H](O)C[C@@H]2O1 [Comparative Compound A, reference compound] | 3 | has agonist activity | 710 | has agonist activity | 1.1 | has agonist activity
2 | O=C(O)CCC[C@H]1CC[C@@H]2[C@@H](CC[C@@H](O)COc3cccc(C(F)(F)F)c3)[C@H](O)C[C@@H]2OC1 [Example 108 (13), 4-[(3S,5aR,6R,7R,8aS)-7-hydroxy-6-{(3R)-3-hydroxy-4-[3-(trifluoromethyl)phenoxy]butyl}octahydro-2H-cyclopenta[b]oxepin-3-yl]butanoic acid] | > 10000 |  | > 10000 |  | 9.7 | 
3 | O=C(O)CCC[C@H]1CC[C@@H]2[C@@H](COC/C=C/c3ccccc3)[C@H](O)C[C@@H]2OC1 [Example 110, 4-[(3S,5aR,6S,7R,8aS)-7-hydroxy-6-({[(2E)-3-phenyl-2-propen-1-yl]oxy}methyl)octahydro-2H-cyclopenta[b]oxepin-3-yl]butanoic acid] | > 10000 |  | > 10000 |  | 707 | 
4 | O=C(O)CCC[C@H]1CC[C@@H]2[C@@H](CCOCCc3ccccc3)[C@H](O)C[C@@H]2OC1 [Example 115, 4-{(3S,5aR,6R,7R,8aS)-7-hydroxy-6-[2-(2-phenylethoxy)ethyl]octahydro-2H-cyclopenta[b]oxepin-3-yl}butanoic acid] | > 10000 |  | > 10000 |  | 509 | 
5 | O=C(O)CCC[C@H]1CC[C@@H]2[C@@H](C#CC(O)CCc3ccccc3)[C@H](O)C[C@@H]2OC1 (stereo partly drawn) [Example 119, 4-[(3S,5aR,6S,7R,8aS)-7-hydroxy-6-(3-hydroxy-5-phenyl-1-pentyn-1-yl)octahydro-2H-cyclopenta[b]oxepin-3-yl]butanoic acid] | > 10000 |  | > 10000 |  | 50.8 | 
6 | O=C(O)CCC[C@H]1CC[C@@H]2[C@@H](/C=C/C(F)COc3ccccc3)[C@H](O)C[C@@H]2OC1 (stereo partly drawn) [Example 122, 4-{(3S,5aR,6R,7R,8aS)-6-[(1E)-3-fluoro-4-phenoxy-1-buten-1-yl]-7-hydroxyoctahydro-2H-cyclopenta[b]oxepin-3-yl}butanoic acid] | 9270 |  | > 10000 |  | 9.8 | 
7 | O=C(O)CCC[C@H]1CC[C@@H]2[C@@H](C(F)/C=C/COc3ccccc3)[C@H](O)C[C@@H]2OC1 (stereo partly drawn) [Example 123, 4-{(3S,5aR,6R,7R,8aS)-6-[(2E)-1-fluoro-4-phenoxy-2-buten-1-yl]-7-hydroxyoctahydro-2H-cyclopenta[b]oxepin-3-yl}butanoic acid] | > 10000 |  | > 10000 |  | 99.2 | 
8 | O=C(O)CCC[C@H]1CC[C@@H]2[C@@H](/C=C/C(O)COCc3ccccc3)[C@H](O)C[C@@H]2OC1 (stereo partly drawn) [Example 132 (3), 4-{(3S,5aR,6R,7R,8aS)-6-[(1E)-4-(benzyloxy)-3-hydroxy-1-buten-1-yl]-7-hydroxyoctahydro-2H-cyclopenta[b]oxepin-3-yl}butanoic acid] | > 10000 |  | > 10000 |  | 114 | 
9 | O=C(O)CCC[C@H]1CC[C@@H]2[C@@H](/C=C/C(O)CCC3CCCC3)[C@H](O)C[C@@H]2OC1 (stereo partly drawn) [Example 132 (7), 4-{(3S,5aR,6R,7R,8aS)-6-[(1E)-5-cyclopentyl-3-hydroxy-1-penten-1-yl]-7-hydroxyoctahydro-2H-cyclopenta[b]oxepin-3-yl}butanoic acid] | > 10000 |  | > 10000 |  | 21.1 | 
10 | O=C(O)CCC[C@H]1CC[C@H]2[C@H](CC(F)(F)[C@@H]2/C=C/C(O)CCc2ccccc2)OC1 (stereo partly drawn) [Example 139 (2), 4-{(3S,5aR,6R,8aS)-7,7-difluoro-6-[(1E)-3-hydroxy-5-phenyl-1-penten-1-yl]octahydro-2H-cyclopenta[b]oxepin-3-yl}butanoic acid] | > 10000 |  | > 10000 |  | 39 | 
11 | O=C(O)CCC[C@H]1CC[C@@H]2[C@@H](/C=C/C(F)(F)CCc3ccccc3)[C@H](O)C[C@@H]2OC1 [Example 141 (1), 4-{(3S,5aR,6R,7R,8aS)-6-[(1E)-3,3-difluoro-5-phenyl-1-penten-1-yl]-7-hydroxyoctahydro-2H-cyclopenta[b]oxepin-3-yl}butanoic acid] | > 10000 |  | > 10000 |  | 4.6 | 
12 | CC(C)=CCCCC(F)(F)/C=C/[C@@H]1[C@H]2CC[C@H](CCCC(=O)O)CO[C@H]2C[C@H]1O [Example 141 (5), 4-{(3S,5aR,6R,7R,8aS)-6-[(1E)-3,3-difluoro-8-methyl-1,7-nonadien-1-yl]-7-hydroxyoctahydro-2H-cyclopenta[b]oxepin-3-yl}butanoic acid] | > 10000 |  | > 10000 |  | 39.1 | 
